Earlier results on two compounds are cited in US5561042A, “Diamine platinum naphthalimide complexes as antitumor agents” (Cancer Therapy and Research Center, priority 1995, dated 1996).

For data set [1] the following is noted: cited from earlier work.
In data set [2] the test system is MX-1 human breast carcinoma. The settings on record: in vivo; cited from earlier work.
Data set [3] relates to DLD-2 human colon adenocarcinoma. The settings on record: in vivo; cited from earlier work.
For another data set, the system named is B16 melanoma. The settings on record: cited from earlier work.
Data set [4] concerns SV40 DNA (Form I, negatively supercoiled). The settings on record: comparison with compound 21; no own test described; cited from earlier work.

For `CS(=O)(=O)O.O=C1c2cccc3cc([N+](=O)[O-])cc(c23)C(=O)N1CCCCNCCCN1C(=O)c2cccc3cc([N+](=O)[O-])cc(c23)C1=O` [XB596], the water solubility in data set [1] was 45 µg/mL. Further, the “anti-tumor activity, MX-1 (in words)” value in data set [2] is on record as “demonstrated in vivo anti-tumor activity”. Moreover, the “anti-tumor activity, DLD-2 (in words)” value in data set [3] is listed as “demonstrated in vivo anti-tumor activity”. Moreover, the “activity against B16 melanoma (in words)” value with B16 melanoma is recorded as “ineffective against B16 melanoma”.
Consider `N.N.[Cl][Pt][Cl]` [Cisplatin], for which, in data set [4], the “effect on DNA conformation (in words)” value is “does not show such an effect and causes unwinding only after prolonged incubation”.
